Source: patent US20040176349A1, “Antibacterial composition” (priority 2001, published 2004)

Key:
E. faecalis 24592 = experiment: MIC, microbroth dilution (NCCLS), Table 1; assay type: cell-based; conditions: Enterococcus faecalis, 24592
Experimental: (§1) The minimum inhibitory concentration (MIC) of the compounds was determined using the microbroth dilution technique in accordance with NCCLS guidelines, employing Mueller-Hinton broth (National Committee for Clinical Laboratory Standards, NCCLS, 1995 “Methods for dilution antimicrobial susceptibility tests for bacteria that grow aerobically”—approved standard M7-A5).
(§2) The compounds were tested in isolation, at different concentrations.

E. faecalis NCTC 5957 = experiment: MIC, microbroth dilution (NCCLS), Table 1; assay type: cell-based; conditions: Enterococcus faecalis, NCTC5957
Experimental: as §1, §2

E. faecalis Phillips = experiment: MIC, microbroth dilution (NCCLS), Table 1; assay type: cell-based; conditions: Enterococcus faecalis
Experimental: as §1, §2

E. faecalis SFZ = experiment: MIC, microbroth dilution (NCCLS), Table 1; assay type: cell-based; conditions: Enterococcus faecalis
Experimental: as §1, §2

E. faecium NCTC 7171 = experiment: MIC, microbroth dilution (NCCLS), Table 1; assay type: cell-based; conditions: Enterococcus faecium, NCTC7171
Experimental: as §1, §2

E. hirae ATCC 10541 = experiment: MIC, microbroth dilution (NCCLS), Table 1; assay type: cell-based; conditions: Enterococcus hirae, ATCC10541
Experimental: as §1, §2

VRE 1662 = experiment: MIC, microbroth dilution (NCCLS), Table 1; assay type: cell-based, Enterococcus; conditions: Enterococcus, VRE
Experimental: as §1, §2

VRE 300 1562 = experiment: MIC, microbroth dilution (NCCLS), Table 1; assay type: cell-based, Enterococcus; conditions: Enterococcus, VRE
Experimental: as §1, §2

VRE 300 1590 = experiment: MIC, microbroth dilution (NCCLS), Table 1; assay type: cell-based, Enterococcus; conditions: Enterococcus, VRE
Experimental: as §1, §2

VRE 300 2043 = experiment: MIC, microbroth dilution (NCCLS), Table 1; assay type: cell-based, Enterococcus; conditions: Enterococcus, VRE
Experimental: as §1, §2

E. faecalis 5659 (vanA) = experiment: Checkerboard microdilution MIC with PFOB, Table 2; assay type: cell-based
Source text: (§3) The aim of the study was to detect any synergy between PFOB and the other antibiotics. For the purposes of the study, synergy was defined in accordance with the FIC (fractional inhibitory concentration) index, as disclosed by Lorian (1991, In “Antibiotics in Laboratory Medicine” 3rd edition, Eds. Williams & Wilkins; esp. p 434-443). In essence, if the combination of test compounds gives at least a 4-fold reduction in the FIC value for each compound, then a synergy may be considered to exist (i.e. FIC of the combination <0.5=synergy; FIC 0.5-2.0=“indifference”; and FIC >2=antagonism).
(§4) In Table 2, results in the checkerboard indicating synergy are hatched, and specific optimum synergistic combinations are boxed.

E. faecalis ATCC 29212 = experiment: Checkerboard microdilution MIC with PFOB, Table 2; assay type: cell-based
Source text: as §3, §4

E.faecalis 78097 (van B) = experiment: Checkerboard microdilution MIC with PFOB, Table 2; assay type: cell-based
Source text: as §3, §4

E. faecalis ATCC 10541 = experiment: Checkerboard microdilution MIC with PFOB, Table 2; assay type: cell-based
Source text: The aim of the study was to detect any synergy between PFOB and the other antibiotics. For the purposes of the study, synergy was defined in accordance with the FIC (fractional inhibitory concentration) index, as disclosed by Lorian (1991, In “Antibiotics in Laboratory Medicine” 3rd edition, Eds. Williams & Wilkins; esp. p 434-443).

Enterococcus strains = experiment: MIC against Enterococcus strains, summary of Example 1; assay type: cell-based; conditions: in words
Experimental: as §1, §2

enterococci = experiment: Checkerboard study, synergy summary of Example 2; assay type: cell-based, Enterococcus; conditions: in words
Source text: as §3

[1] = Enterococcus faecalis, read-out: MIC (alone) of Partner

## O=C(O)[C@H]1/C(=C/CO)O[C@@H]2CC(=O)N21 [CA, clavulanic acid]
E. faecalis 24592
  MIC: > 128 µg/mL
E. faecalis NCTC 5957
  MIC: > 128 µg/mL
E. faecalis Phillips
  MIC: > 128 µg/mL
E. faecalis SFZ
  MIC: > 128 µg/mL
E. faecium NCTC 7171
  MIC: > 128 µg/mL
E. hirae ATCC 10541
  MIC: > 128 µg/mL
VRE 1662
  MIC: > 128 µg/mL
VRE 300 1562
  MIC: > 128 µg/mL
VRE 300 1590
  MIC: > 128 µg/mL
VRE 300 2043
  MIC: > 128 µg/mL
E. faecalis 5659 (vanA); E. faecalis 5659 (vanA), PFOB 0.5 mg/L
  MIC of partner antibiotic in the presence of PFOB at 0.5 mg/L: >64 µg/mL
E. faecalis 5659 (vanA); E. faecalis 5659 (vanA), PFOB 1 mg/L
  MIC of partner antibiotic in the presence of PFOB at 1 mg/L: >64 µg/mL
E. faecalis 5659 (vanA); E. faecalis 5659 (vanA), PFOB 2 mg/L
  MIC of partner antibiotic in the presence of PFOB at 2 mg/L: >64 µg/mL
E. faecalis 5659 (vanA); E. faecalis 5659 (vanA), PFOB 4 mg/L
  MIC of partner antibiotic in the presence of PFOB at 4 mg/L: >64 µg/mL
E. faecalis 5659 (vanA); E. faecalis 5659 (vanA), PFOB 8 mg/L
  MIC of partner antibiotic in the presence of PFOB at 8 mg/L: >64 µg/mL
E. faecalis 5659 (vanA); E. faecalis 5659 (vanA), PFOB 16 mg/L
  MIC of partner antibiotic in the presence of PFOB at 16 mg/L: >64 µg/mL
E. faecalis 5659 (vanA); E. faecalis 5659 (vanA), PFOB 32 mg/L
  MIC of partner antibiotic in the presence of PFOB at 32 mg/L: >64 µg/mL
E. faecalis 5659 (vanA); [1]
  MIC: > 64 µg/mL
E. faecalis ATCC 29212; E. faecalis ATCC 29212, PFOB 0.5 mg/L
  MIC of partner antibiotic in the presence of PFOB at 0.5 mg/L: >64 µg/mL
E. faecalis ATCC 29212; E. faecalis ATCC 29212, PFOB 1 mg/L
  MIC of partner antibiotic in the presence of PFOB at 1 mg/L: >64 µg/mL
E. faecalis ATCC 29212; E. faecalis ATCC 29212, PFOB 2 mg/L
  MIC of partner antibiotic in the presence of PFOB at 2 mg/L: >64 µg/mL
E. faecalis ATCC 29212; E. faecalis ATCC 29212, PFOB 4 mg/L
  MIC of partner antibiotic in the presence of PFOB at 4 mg/L: >64 µg/mL
E. faecalis ATCC 29212; E. faecalis ATCC 29212, PFOB 8 mg/L
  MIC of partner antibiotic in the presence of PFOB at 8 mg/L: >64 µg/mL
E. faecalis ATCC 29212; E. faecalis ATCC 29212, PFOB 16 mg/L
  MIC of partner antibiotic in the presence of PFOB at 16 mg/L: >64 µg/mL
E. faecalis ATCC 29212; E. faecalis ATCC 29212, PFOB 32 mg/L
  MIC of partner antibiotic in the presence of PFOB at 32 mg/L: >64 µg/mL
E. faecalis ATCC 29212; Enterococcus faecalis, ATCC29212, read-out: MIC (alone) of Partner
  MIC: > 64 µg/mL
E.faecalis 78097 (van B); E.faecalis 78097 (van B), PFOB 0.5 mg/L
  MIC of partner antibiotic in the presence of PFOB at 0.5 mg/L: >64 µg/mL
E.faecalis 78097 (van B); E.faecalis 78097 (van B), PFOB 1 mg/L
  MIC of partner antibiotic in the presence of PFOB at 1 mg/L: >64 µg/mL
E.faecalis 78097 (van B); E.faecalis 78097 (van B), PFOB 2 mg/L
  MIC of partner antibiotic in the presence of PFOB at 2 mg/L: >64 µg/mL
E.faecalis 78097 (van B); E.faecalis 78097 (van B), PFOB 4 mg/L
  MIC of partner antibiotic in the presence of PFOB at 4 mg/L: >64 µg/mL
E.faecalis 78097 (van B); E.faecalis 78097 (van B), PFOB 8 mg/L
  MIC of partner antibiotic in the presence of PFOB at 8 mg/L: >64 µg/mL
E.faecalis 78097 (van B); E.faecalis 78097 (van B), PFOB 16 mg/L
  MIC of partner antibiotic in the presence of PFOB at 16 mg/L: >64 µg/mL
E.faecalis 78097 (van B); E.faecalis 78097 (van B), PFOB 32 mg/L
  MIC of partner antibiotic in the presence of PFOB at 32 mg/L: >64 µg/mL
E.faecalis 78097 (van B); [1]
  MIC: > 64 µg/mL
E. faecalis ATCC 10541; E. faecalis ATCC 10541, PFOB 0.5 mg/L
  MIC of partner antibiotic in the presence of PFOB at 0.5 mg/L: >64 µg/mL
E. faecalis ATCC 10541; E. faecalis ATCC 10541, PFOB 1 mg/L
  MIC of partner antibiotic in the presence of PFOB at 1 mg/L: >64 µg/mL
E. faecalis ATCC 10541; E. faecalis ATCC 10541, PFOB 2 mg/L
  MIC of partner antibiotic in the presence of PFOB at 2 mg/L: >64 µg/mL
E. faecalis ATCC 10541; E. faecalis ATCC 10541, PFOB 4 mg/L
  MIC of partner antibiotic in the presence of PFOB at 4 mg/L: >64 µg/mL
E. faecalis ATCC 10541; E. faecalis ATCC 10541, PFOB 8 mg/L
  MIC of partner antibiotic in the presence of PFOB at 8 mg/L: >64 µg/mL
E. faecalis ATCC 10541; E. faecalis ATCC 10541, PFOB 16 mg/L
  MIC of partner antibiotic in the presence of PFOB at 16 mg/L: >64 µg/mL
E. faecalis ATCC 10541; E. faecalis ATCC 10541, PFOB 32 mg/L
  MIC of partner antibiotic in the presence of PFOB at 32 mg/L: >64 µg/mL
E. faecalis ATCC 10541; Enterococcus faecalis, ATCC10541, read-out: MIC (alone) of Partner
  MIC: > 64 µg/mL
Enterococcus strains; clavulanic acid added at 4 mg/L
  effect on the MIC of CAZ: no significant effect
Enterococcus strains; compound alone, all strains of Table 1
  activity in isolation against the Enterococcus strains tested: inactive
enterococci
  synergy with PFOB: No synergy
